The compounds below were run on LTB4 Synthesis (assay: Reverse Passive Arthus Reaction (pleurisy, LTB4 in pleural exudate)). Conditions: Rattus norvegicus, po; standard drugs; ED50 printed in parentheses.
Format: in vivo, male Lewis rats
Description: 3. Reverse Passive Arthus Reaction
A reverse passive Arthus reaction is induced in the pleural cavity of male Lewis rats (150°-200 g; fasted overnight prior to use) by the intravenous administration of bovine serum albumin (BSA; 4 mg/0.2 ml) followed 30 minutes later by the injection of rabbit anti-BSA (1 mg/0.2 ml; lyophilized IgG fraction; Organon Teknika, West Chester, Pa.) into the right pleural space under halothane anesthesia. Drugs or vehicle (0.5% Tween-80) control are administered orally in a volume of 1 ml/100 g body weight at 1 hour prior to the anti-BSA. Animals are sacrificed at either the time of peak eicosanoid production (i.e. 5 minutes after anti-BSA for immunoreactive TxB2, 10 minutes for immunoreactive LTB4, 20 minutes for immunoreactive LTC4) or at the time of peak neutrophil infiltration (4 hours after anti-BSA) by CO2 inhalation. The pleural cavity is then exposed, the fluid exudate removed by gentle vacuum aspiration and the volume of exudate is recorded. For the determination of cellular infiltration, the pleural cavity is rinsed with 3 ml of 0.1% EDTA in sterile saline, and the recovered wash is pooled with the exudate. Cell number is determined on a model ZBI Coulter counter. For determination of eicosanoid production, undiluted pleural exudate is microfuged and the supernatant is extracted with ethanol (8-10 times volume). Extracts are either stored at -20° C., or are evaporated to dryness under a stream of N2 and reconstituted in radioimmunoassay (RIA) buffer.
Eicosanoids are quantitated by RIA according to the procedure specified by the RIA kit manufacturer (Advanced Magnetics, Cambridge, MA). Briefly, 100 μl of ^3 H-labeled eicosanoid and 100 μl of specific antibody ,are sequentially added to 100 μl of extracted pleural exudate in BGG-phosphate buffer which contains 0.01M phosphate, 0.1% bovine gamma globulin and 0.1% sodium azide at pH 7.0. Antibody-bound eicosanoid is separated from unbound eicosanoid by the addition of 750 μl of dextran (0.4%)-coated charcoal (Norit A) containing 0.1% sodium azide. The mixture is centrifuged at 2000 RPM at 5° C. for 15 minutes to pellet the charcoal and adsorbed unbound eicosanoid. Antibody-bound labeled eicosanoid is quantitated by counting in a liquid scintillation counter, and is correlated to concentration by a standard curve.

| SMILES | ED50 [mg/kg] |
| --- | --- |
| NC1=NN(c2cccc(C(F)(F)F)c2)CC1 [BW755C, reference compound] | 23 |
| O=C1CCN(c2ccccc2)N1 [Phenidone, reference compound] | 10 |

Same assay, conditions: standard drugs, 4 mg/kg p.o.

| SMILES | % Inhibition of LTB4 [%] |
| --- | --- |
| COc1ccc2c(c1)c(CC(=O)O)c(C)n2C(=O)c1ccc(Cl)cc1 [Indomethacin, reference compound] | 12 |
| COc1ccc2cc([C@H](C)C(=O)O)ccc2c1 [Naproxen, reference compound] | 0 |

Same assay, conditions: standard drugs, 10 mg/kg p.o.

| SMILES | % Inhibition of LTB4 [%] |
| --- | --- |
| O=C(O)Cc1ccccc1Nc1c(Cl)cccc1Cl [Diclofenac, reference compound] | 0 |
| CC(C(=O)O)c1cccc(C(=O)c2ccccc2)c1 (centres unmarked) [Ketoprofen, reference compound] | 35 |

The compounds below were run against T1, 5-Lipoxygenase (Homo sapiens, UniProt P09917) (assay: Inhibition of 5-Lipoxygenase in Human Whole Blood (ionophore A23187-stimulated LTB4)). Conditions: 1 μM.
T1 construct: endogenous in cells; host or cells: whole blood of male human donors (results per 10^6 neutrophils)
T1 sequence (P09917 1-674): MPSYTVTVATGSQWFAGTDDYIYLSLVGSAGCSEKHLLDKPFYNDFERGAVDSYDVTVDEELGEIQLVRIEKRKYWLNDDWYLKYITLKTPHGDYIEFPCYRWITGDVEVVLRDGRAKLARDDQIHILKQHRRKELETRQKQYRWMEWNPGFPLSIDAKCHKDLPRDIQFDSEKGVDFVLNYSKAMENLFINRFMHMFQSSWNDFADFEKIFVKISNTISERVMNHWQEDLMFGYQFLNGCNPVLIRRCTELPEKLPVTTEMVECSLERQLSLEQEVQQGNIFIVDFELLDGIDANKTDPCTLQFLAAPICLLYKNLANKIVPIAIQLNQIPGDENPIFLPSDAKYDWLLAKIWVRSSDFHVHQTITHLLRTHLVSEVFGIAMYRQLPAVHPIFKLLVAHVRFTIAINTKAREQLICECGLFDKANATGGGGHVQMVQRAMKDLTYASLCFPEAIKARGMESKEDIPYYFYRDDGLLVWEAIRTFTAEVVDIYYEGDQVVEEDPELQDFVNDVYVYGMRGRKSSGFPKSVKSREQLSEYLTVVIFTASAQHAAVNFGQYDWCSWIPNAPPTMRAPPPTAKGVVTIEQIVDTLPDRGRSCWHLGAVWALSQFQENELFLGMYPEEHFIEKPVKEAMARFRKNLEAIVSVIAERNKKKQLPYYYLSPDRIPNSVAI
Format: cell-based
Description: 1. Inhibition of 5-Lipoxygenase in Human Whole Blood
Blood is obtained in 50-100 ml quantities from male donors. White blood cell counts and differentials are made. Two ml of blood are placed in a 15 ml polypropylene test tube. Test compounds are solubilized in dimethylsulfoxide and diluted in 1:10 in 10% bovine serum albumin in phosphate buffered saline, pH 7.4 resulting in a final dimethylsulfoxide concentration of 0.1% in the blood. Then, solutions of test compounds are added to the blood in a shaking water bath at 37° C. for 10 minutes prior to the addition of 30 μM calcium ionophore (A23187, Sigma). After ionophore administration, whole blood samples are mixed and incubated for 20 minutes at 37° C. in a shaking water bath. Incubation is terminated by placing samples in an ice bath and immediately adding ethylene glycol-bis-(β-aminoethyl ether)-N, N,N',N'-tetraacetic acid (10 mM). Samples are mixed and centrifuged at 1200×g for 15 minutes at […]. Preparation of samples for evaluation by RIA or ELISA is carded out by the following protocol. Plasma is removed from sample tubes, placed in 15 ml polypropylene test tubes containing 8 ml methanol, and then vortexed to precipitate protein. Samples are stored at -70° C. overnight. The next day, samples are centrifuged at 200×g for 15 minutes at 4° C. to pellet the precipitate. Samples are dried in a Savant SpeedVac Concentrator, Model SVC 200H, reconstituted to original volume with ice cold RIA or ELISA buffer, and stored at -70° C. until assayed. The assay for eicosanoids (LTB4, TxB2, and PGE2) is performed as described by the manufacturer of the [^3 H]-RIA kit or ELISA kit (LTB4 -Amersham, TxB2 and PGE2 - Caymen Chemical).
The total eicosanoid level in 2 ml of blood is calculated and reported as ng/10^6 neutrophils. Significance is determined by a one-way analysis of variance with least significant difference (LSD) comparisons to control (p≤0.05) and IC50 's (μM) are determined by regression analysis (Finney, 1978). Drug effects are expressed as percent change from control values.

| SMILES | inhibition at 1 µM [%] |
| --- | --- |
| Cc1oc(-c2ccccc2)nc1CCOc1cccc(C(C)N(O)C(N)=O)c1 (centres unmarked) [Example 5, 1-Hydroxy-1-[1-[3-[2-(5-methyl-2-phenyl-oxazol-4-yl)-ethoxy]-phenyl]ethyl]-urea] | 34 |
| Cc1ccc(-c2nc(CCOc3ccc(CN(O)C(N)=O)cc3)c(C)o2)cc1 [Example 11, 1-Hydroxy-1-[4-[2-(5-methyl-2-(p-tolyl)-oxazol-4-yl]-ethoxy]-benzyl]-urea] | 40 |
| Cc1oc(-c2ccc(C(F)(F)F)cc2)nc1CCOc1ccc(CN(O)C(N)=O)cc1F [Example 14] | 36 |
| Cc1oc(-c2ccc(C(F)(F)F)cc2)nc1CCOc1c(Cl)cc(CN(O)C(N)=O)cc1Cl [Example 15, 1-[3,5-Dichloro-4-[2-[5-methyl-2-(4-trifluoromethyl-phenyl)-oxazol-4-yl]ethoxy]-benzyl]-1-hydroxy-urea] | 38 |
| Cc1oc(-c2ccc(SC(F)(F)F)cc2)nc1CCOc1ccc(CN(O)C(N)=O)cc1 [Example 16, 1-Hydroxy-1-[4-[2-[5-methyl-2-(4-trifluoromethylsulfanyl-phenyl)-oxazol-4yl]-ethoxy]-benzyl]-urea] | 50 |
| NC(=O)N(O)Cc1cccc(OCCc2csc(-c3ccc(C(F)(F)F)cc3)n2)c1 [Example 20, 1-Hydroxy-1-[3-[2-[2-(4-trifluoromethyl-phenyl)-thiazol-4-yl]-ethoxy]-benzyl]-urea] | 30 |

Same assay, conditions: 10 μM

| SMILES | inhibition at 10 µM [%] |
| --- | --- |
| Cc1cc(OCCc2nc(-c3ccccc3)oc2C)cc(C)c1CN(O)C(N)=O [Example 9, 1-[2,6-Dimethyl-4-[2-(5-methyl-2-phenyl-oxazol-4-yl)-ethoxy]-benzyl]-1-hydroxy-urea] | 42 |
| NC(=O)N(O)Cc1ccc(OCCc2csc(-c3ccccc3)n2)cc1 [Example 17, 1-Hydroxy-1-[4-[2-(2-phenyl-thiazol-4-yl)-ethoxy]-benzyl]-urea] | 93 |
| NC(=S)N(O)Cc1ccc(OCCc2csc(-c3ccccc3)n2)cc1 [Example 18] | 94 |
| CN(CCOc1ccc(CN(O)C(N)=O)cc1)c1nc2ccccc2o1 [Example 22, 1-[4-[2-(-Benzoxazol-2-yl-methyl-amino)-ethoxy]-benzyl]-1-hydroxy-urea] | 60 |
| COC(=O)N(O)Cc1ccc(OCCN(C)c2nc3ccccc3o2)cc1 [Example 24] | 77 |

— patent US5428048A, “Aryl-N-hydroxyureas as inhibitors of 5-lipoxygenase and anto-arteriosclerotic agents” (American Home Products Corporation, priority 1993, dated 1995)
